Laboratory results published in PubChem BioAssay AID1053167 (Broad Institute, 2014).
“And” between values parts separate entries of the source, which are not always exact repeats. Identical values can stand only once. The source made the active and inactive calls. How the calls were made is not given here.

Test system: not listed separately
Test: Vaccinia orthopox stage specific inhibitors, infected cell plate reader assay, dose response confirmation (AID 1053167)
Conditions: Vaccinia virus infected cells, plate reader read-out; at 1 µM (top of the series)

| SMILES | activity change, negative = inhibition |
| --- | --- |
| C[C@H](O)C#Cc1ccc2c(c1)O[C@@H](CN(C)Cc1ccc(-c3ccccc3)cc1)[C@H](C)CN([C@@H](C)CO)S2(=O)=O | 6% (inactive) |
| CO[C@H]1CN(C)C(=O)c2ccc(NC(=O)c3ccc(F)cc3)cc2OC[C@H](C)N(C(=O)c2ccc(F)cc2)C[C@@H]1C | 0% (inactive) |

Same assay, conditions: Vaccinia virus infected cells, plate reader read-out; at 10 µM (top of the series)

| SMILES | activity change, negative = inhibition |
| --- | --- |
| C[C@H](O)C#Cc1ccc2c(c1)O[C@@H](CN(C)Cc1ccc(-c3ccccc3)cc1)[C@@H](C)CN([C@H](C)CO)S2(=O)=O | 1% (inactive) |
| C[C@H]1CN([C@@H](C)CO)S(=O)(=O)c2ccc(Br)cc2O[C@H]1CN(C)Cc1ccc(-c2ccccc2)cc1 | -19% (inactive) |
| C[C@@H](O)C#Cc1ccc2c(c1)O[C@@H](CN(C)S(=O)(=O)c1ccc(-c3ccccc3)cc1)[C@@H](C)CN([C@@H](C)CO)S2(=O)=O | -14% (inactive) |
| C[C@@H](O)C#Cc1ccc2c(c1)O[C@@H](CN(C)C(=O)c1ccc(-c3ccccc3)cc1)[C@@H](C)CN([C@@H](C)CO)S2(=O)=O | -22% (inactive) |
| CNC[C@@H]1Oc2cc(Br)ccc2S(=O)(=O)N([C@@H](C)CO)C[C@@H]1C | -1% (inactive) |
| C[C@H](O)C#Cc1ccc2c(c1)O[C@@H](CN(C)Cc1ccc(-c3ccccc3)cc1)[C@@H](C)CN([C@@H](C)CO)S2(=O)=O | -4% (inactive) |

Test system: Vaccinia virus infected cells, plate reader read-out
Test: as above
Conditions: not given

| SMILES | AC50 |
| --- | --- |
| COc1ccc(-c2ccc(CN(C)C[C@@H]3Oc4cc(C#C[C@@H](C)O)ccc4S(=O)(=O)N([C@@H](C)CO)C[C@@H]3C)cc2)cc1 | 2200 nM |
| C[C@@H](O)C#Cc1ccc2c(c1)O[C@@H](CN(C)Cc1ccc(-c3ccccc3)cc1)[C@@H](C)CN([C@@H](C)CO)S2(=O)=O | 2940 nM and 3900 nM |
| C[C@@H]1CN([C@@H](C)CO)S(=O)(=O)c2ccc(C#C[C@@H](C)O)cc2O[C@@H]1CN(C)Cc1ccc(-c2ccccc2)cc1 | > 20000 nM (inactive) |
| C[C@@H](O)C#Cc1ccc2c(c1)O[C@@H](CN(C)Cc1ccc(-c3cccc(Cl)c3)cc1)[C@@H](C)CN([C@@H](C)CO)S2(=O)=O | 2560 nM |
| C[C@@H](O)C#Cc1ccc2c(c1)O[C@@H](CN(C)Cc1ccc(-c3ccc(Cl)cc3)cc1)[C@@H](C)CN([C@@H](C)CO)S2(=O)=O | 1210 nM |
| C[C@H]1CN([C@@H](C)CO)S(=O)(=O)c2ccc(-c3ccc(O)cc3)cc2O[C@H]1CN(C)Cc1ccc(-c2ccccc2)cc1 | > 20000 nM (inactive) |
| C[C@H]1CN([C@@H](C)CO)S(=O)(=O)c2ccc(C#CC(C)(C)O)cc2O[C@H]1CN(C)Cc1ccc(-c2ccccc2)cc1 | > 20000 nM (inactive) |
| C[C@H](O)C#Cc1ccc2c(c1)O[C@H](CN(C)Cc1ccc(-c3ccccc3)cc1)[C@@H](C)CN([C@@H](C)CO)S2(=O)=O | 5700 nM |
| Cc1cccc(-c2ccc(CN(C)C[C@@H]3Oc4cc(C#C[C@@H](C)O)ccc4S(=O)(=O)N([C@@H](C)CO)C[C@@H]3C)cc2)c1 | 1740 nM |
| COc1ccc(-c2ccc3c(c2)O[C@@H](CN(C)Cc2ccc(-c4ccccc4)cc2)[C@@H](C)CN([C@@H](C)CO)S3(=O)=O)cc1 | > 20000 nM (inactive) |
| C[C@H](O)C#Cc1ccc2c(c1)O[C@H](CN(C)Cc1ccc(-c3ccccc3)cc1)[C@@H](C)CN([C@H](C)CO)S2(=O)=O | > 20000 nM (inactive) |
| C[C@H](O)C#Cc1ccc2c(c1)O[C@H](CN(C)Cc1ccc(-c3ccccc3)cc1)[C@H](C)CN([C@H](C)CO)S2(=O)=O | > 20000 nM (inactive) |
| COc1ccccc1-c1ccc(CN(C)C[C@@H]2Oc3cc(C#C[C@@H](C)O)ccc3S(=O)(=O)N([C@@H](C)CO)C[C@@H]2C)cc1 | 2140 nM |
| COc1cccc(-c2ccc(CN(C)C[C@@H]3Oc4cc(C#C[C@@H](C)O)ccc4S(=O)(=O)N([C@@H](C)CO)C[C@@H]3C)cc2)c1 | 2770 nM |
| Cc1ccccc1-c1ccc(CN(C)C[C@@H]2Oc3cc(C#C[C@@H](C)O)ccc3S(=O)(=O)N([C@@H](C)CO)C[C@@H]2C)cc1 | 1160 nM |
| Cc1ccc(-c2ccc(CN(C)C[C@@H]3Oc4cc(C#C[C@@H](C)O)ccc4S(=O)(=O)N([C@@H](C)CO)C[C@@H]3C)cc2)cc1 | 1480 nM |
| C[C@@H](O)C#Cc1ccc2c(c1)O[C@@H](CN(C)Cc1ccccc1)[C@@H](C)CN([C@@H](C)CO)S2(=O)=O | 8730 nM |
| C[C@@H]1CN([C@H](C)CO)S(=O)(=O)c2ccc(C#C[C@@H](C)O)cc2O[C@H]1CN(C)Cc1ccc(-c2ccccc2)cc1 | 7160 nM |
| C[C@@H](O)C#Cc1ccc2c(c1)O[C@@H](CN(C)Cc1ccc(-c3ccccc3Cl)cc1)[C@@H](C)CN([C@@H](C)CO)S2(=O)=O | 1340 nM |
| C[C@H](O)C#Cc1ccc2c(c1)O[C@@H](CN(C)Cc1ccc(-c3ccccc3)cc1)[C@H](C)CN([C@H](C)CO)S2(=O)=O | > 20000 nM (inactive) |
